# From patent publication EP3861991A1, “COMPOSITION FOR PREVENTING AND TREATING ACUTE AND CHRONIC WOUNDS” (Foodar Advanced Research S.r.l., priority 2020, dated 2021)
# System: HDF cells
# Test: Scratch assay: fibroblast cell migration and wound closure
# Format: cell-based, Human
# Settings: 10 µM, single components, Fig. 2
# Method: Human dermal fibroblasts (HDF) (ATCC, Manassas, VA, USA) were grown in fibroblast basal medium supplemented with fibroblast growth kit-serum free (ATCC). Activation, proliferation and migration of fibroblasts are the primary steps in wound healing, where multiple cell types and other micro environmental factors are involved. Scratch assay is a widely applied In vitro technique for understanding the wound healing capabilities of medicinally important compounds. HDF cells were seeded in 6-well plates and were cultured overnight. Cells were then washed with Delbucco's Phosphate Buffered Saline (DPBS) and a scratch was made with a sterile 200µL tip. The detached cells and other cellular debris were removed by washing the cells with DPBS. The cells were treated with 10 µM of AND (source of Example 1), HYX (source of Example 1), or AND + HYX (1/1 ratio, same sources) and incubated for 24 h. Untreated cells were negative control. […] The experiments were performed in triplicate (n = 3). The width of the scratch and wound closure at different time intervals (0, 12, 24 and 48hrs) was analyzed by Image J software.
structure (smiles),measurement,value
"C=C1CC[C@@H]2[C@](C)(CO)[C@H](O)CC[C@@]2(C)[C@@H]1C/C=C1/C(=O)OC[C@H]1O [AND, 3-[2-[Decahydro-6-hydroxy-5-(hydroxymethyl)-5,8a-dimethyl-2-methylene-1-napthalenyl]ethylidene]dihydro-4-hydroxy-2(3H)-furanone]","percentage of cell migration (in words, relative to the AND+HYX combination)",well lower
